# Assay results published in a melting point compilation (Tetko et al.; mined from patent text by program, amines drawn as free bases though some values may be those of a salt).
row,Compound,melting point [°C]
1,Cc1cc2c(c(C)c1O)OC[C@@H](N1CCC(O)(c3ccc(F)cc3)CC1)[C@H]2O (relative stereo),226 to 227
2,CC(C(N)=O)c1ccc2c(c1)C(=O)Cc1cc([N+](=O)[O-])ccc1S2 (stereo unspecified),207 to 209
3,CC(C)CCCC(C)C1CCC2C3CC=C4CC(OCCCCCCN5C(=O)c6ccccc6C5=O)CCC4(C)C3CCC12C (stereo unspecified),80
4,COC(=O)CN(N)CC(=O)OC,166
5,O=C(CCCN1CCC(c2noc3cc(F)ccc23)CC1)c1cc2c(s1)CCCNC2=O,142 to 143
6,CN(C)C(=O)c1cn(-c2cc3c(=O)n(NS(C)(=O)=O)c(=O)[nH]c3cc2C(F)(F)F)cn1,284 to 286
7,N#CCCCCC(N)=O,63 to 65
8,O=c1[nH]ccc2ncccc12,156 to 159
9,CCCCSc1cc([N+](=O)[O-])cc(C(O)=NC)c1C(=O)O,106 to 108
10,CCCNCCC(=O)Nc1ccc2c(c1)C(=O)c1cc(NC(=O)CCNCCC)ccc1C2=O,170
11,CCOc1cc2c(cc1OCC)C(=C(C#N)SCC(CN1CCOCC1)OC(C)=O)NCC2 (stereo unspecified),133
12,CC1(C)CCS(=O)(=O)N1,72
13,COc1cnn(-c2cccc(CBr)c2)c(=O)c1OC,67 to 69
14,CSc1ncc2cc(CBr)c(=O)n(C3CCCC3)c2n1,103 to 105
15,CCn1cc(C(=O)O)c(=O)c2cc(Cl)c(N3CCN(CCO)CC3)cc21,215
16,O=C(Nc1ccc(NC(=O)OCCCl)c([N+](=O)[O-])n1)OCCCl,118 to 119
17,CN(C)C(c1cccs1)C1CCC(=NO)CC1 (stereo unspecified),118 to 121
18,CCOC(=O)C=C(C)C=CC=C(C)C=Cc1c(C)cc(OC)c(C)c1Cl,106 to 107
19,O=Cc1ccc(-c2cc(Br)ccn2)o1,105 to 106
20,Cc1nccn1Cc1cnn(-c2ccc(Cl)c(Cl)c2)c1,176 to 177
21,CC1CCCCN1C(=O)C=Cc1ccc(C(F)(F)F)cc1 (stereo unspecified),88 to 89
22,CC1(C)OC(c2ccc(-c3ccc(Cl)cc3)cc2)OC1=O (stereo unspecified),108 to 110
23,O=C1C=C(O)C(Cc2ccc(Br)cc2)S1 (stereo unspecified),156 to 157
24,CC(C)C[C@H](NC(=O)[C@H](Cc1ccccc1)NC(=O)C1CCCCC1S)C(=O)O (stereo partly specified),180 to 183
25,O=CNCC1=CNCN1[C@H]1CCc2c(F)cc(F)cc2C1,194 to 195

row,Compound,melting point [°C]
1,CCCC(=O)c1nc(CCC)[nH]c1C,94 to 95
2,O=C(O)CCCC1Cc2ccccc2C1,75
3,CCCCCCCCC(CCC)CC(=O)Nc1ccccc1 (stereo unspecified),98 to 100
4,N[C@H]1CC[C@H](CC(=O)N2CCN(c3ccccc3)CC2)CC1,90 to 93
5,COc1ccc(Cl)cc1NC(=O)[C@H]1[C@H](c2ccc(S(N)(=O)=O)c(C)c2)C1(C)C (relative stereo),118 to 121
6,N#CCc1nc(N)nc(N)c1-c1ccc(Cl)cc1Cl,249 to 251
7,CON(C)C(=O)c1cc(S(N)(=O)=O)sc1Cl,223 to 225
8,CC#CCOc1ccc(S(=O)(=O)C2(C(=O)O)CCN(C(CC)CC)CC2)cc1,98
9,NC1=NC2CCCc3cccc(c32)N1 (stereo unspecified),230 to 232
10,CCOC(=O)C1=C(N)C(NCC(O)COCc2cccc(CN3CCCCC3)c2)=NS1(=O)=O (stereo unspecified),72 to 74
11,CCCCCCCCCCCCCCCCCCNC(=O)C=Cc1ccc(O)cc1,114
12,COc1cc2ncnc(N3CCC(N)CC3)c2cc1OC,133 to 135
13,Cc1cccc(Sc2nc(C#N)c(C#N)nc2Cl)c1,117 to 119
14,Cn1cc(C=O)c2cccc(F)c21,92 to 94
15,Fc1ccc2c(c1)nc(Cl)c1nnc(C(F)(F)F)n12,135 to 138
16,COC(=O)CC[C@H](NC(=O)c1ccc(C(CO)CCCc2c(N)nc(N)nc2O)cc1)C(=O)OC (stereo partly specified),104
17,COc1ccc2[nH]c(C(F)(F)F)c(C#N)c2c1,189 to 190
18,COc1ccc(NN=C(C)C)cc1,163 to 164
19,CN(CC(=O)O)C(=O)CCSC(=O)c1ccccc1,139 to 140
20,O=C1N=C(N2CCOCC2)SC1Cc1cccc(-c2ccc(O)c(C3CCCCC3)c2)c1 (stereo unspecified),100 to 108
21,NS(=O)(=O)c1c(Cl)nc2ccc(C3CC3)nn12,194 to 196
22,CN1CCC(O)(c2ccccc2CO)CC1,118 to 119
23,COC(=O)C1=C(C)Nc2ncnn2C1c1cccs1 (stereo unspecified),239 to 240
24,Nc1nc(N)c(N=O)c(OCC2CC=CCC2)n1 (stereo unspecified),237
25,CC(C)c1cccc(C(C)C)c1NC(=O)Nc1nnn[nH]1,> 240

# Now from value to molecule:
row,melting point [°C],Compound
1,161 to 162,Cc1cc(SCc2ccc(-c3ccc(C(F)(F)F)cc3)cc2)c(Cl)cc1OCC(=O)O
2,132 to 135,Nc1cc(Oc2ccc(NC(=O)Nc3ccc(-c4cccnc4)c(C(F)(F)F)c3)cc2)ncn1
3,119 to 121,CC#CC(Cc1cccnc1)(C(=O)O)S(=O)(=O)c1ccc(OC)cc1 (stereo unspecified)
4,152,COc1ccc(C2c3cccc(O)c3C(=O)c3c(O)cccc32)c(OC)c1
5,255 to 257,Oc1cccc(-c2ccc3nnn(Cc4ccc5ncccc5c4)c3n2)c1
6,124 to 126,CS(=O)(=O)N=C(Oc1ccccc1)Oc1ccccc1
7,80 to 81,COC(=O)Cc1ccccc1OCc1cc(OCCc2nc(-c3ccccc3)sc2C)no1
8,98 to 101,CC(=O)OC1(C)CC(=O)OC(CCc2ccc(OCc3ccccc3)cc2)C1 (stereo unspecified)
9,260,NS(=O)(=O)c1ccc(-c2noc(-c3cnn4c(C5CC5)cc(-c5ccc(Cl)cc5)nc34)n2)cc1
10,132 to 134,O=C1c2ccccc2C(O)N1CCCSc1ccncc1 (stereo unspecified)
11,131 to 133,CCc1c(CO)c(CO)c2n1-c1ccccc1C2
12,204 to 205,C=C(C)C(=O)Nc1ccc(O)c(-n2nc3ccc(Cl)cc3n2)c1
13,137 to 138,Cc1oc(-c2ccccc2)nc1COc1ccc(COc2cncc(CC#N)c2)cc1
14,288 to 292,O=c1[nH]c2cc(Cl)ccc2c(O)c1-c1cccc(Cc2ccc(O)cc2)c1
15,68 to 75,CC(C)(C)SC[C@H](NC(=O)C(CS)Cc1ccccc1)C(=O)O (stereo partly specified)
16,174 to 175,CC/C=C(\c1ccccc1N1CCCCC1)C(C(N)=O)c1ccc(C(=O)O)cc1 (stereo unspecified)
17,134 to 136,CC(C)(C)c1ccc(CSc2ccc3c(c2)OCC(=O)N3)cc1
18,206 to 208,CCC1(CC)c2cc(-c3ccc(N(c4ccccc4)c4ccccc4)cc3)ccc2-c2ccc(-c3nc4ccccc4s3)cc21
19,202 to 207,CC(C)C(NC(=O)OCc1cccnc1)C(=O)NC(Cc1ccccc1)C(O)C(O)C(Cc1ccccc1)NC(=O)C(NC(=O)OCc1cccnc1)C(C)C (stereo unspecified)
20,98.8 to 100,CC(=O)N1CCN(CC(C)NC(=O)c2ccc3c(c2)c(-c2ccccc2)nn3C)CC1 (stereo unspecified)
21,66 to 67,Cc1cccc(C(=O)C(Br)c2ccnc(F)c2)c1 (stereo unspecified)
22,230 to 240,COc1ccc(/C(C)=C/c2ccc(C(=O)OCc3ccccc3)cc2)cc1C12CC3CC(CC(C3)C1)C2
23,90 to 92,O=C(c1cccs1)c1cnn2c(-c3cccc(NCc4ccccc4)c3)ccnc12
24,150 to 152,Cn1cc(-c2ccccc2)c(=O)c(-c2cc(C(F)(F)F)ccc2Cl)c1
25,205 to 209,CN(Cc1ccc(NC(=O)C2=Cc3cc(-c4ccc(C(F)(F)F)cc4)ccc3OCC2)cc1)C1CCOCC1
26,152 to 154,CC(=O)NCc1ccc(CN2CCN(c3ccc([N+](=O)[O-])cc3)CC2)cc1

row,melting point [°C],Compound
1,202 to 204,O=S1(=O)N=C(O)C(c2ccccc2)=N1
2,174 to 175,Cc1nn(-c2ccc(F)cc2)c(C)c1C(=O)Nc1ccc(OCC(C)(C)C)c(C#N)c1
3,134 to 135,CC(C)(C)C(=O)OCN1C(=O)CC2(C1=O)C(=O)N(Cc1ccc(Cl)c(Cl)c1)c1ccccc12 (stereo unspecified)
4,115 to 116,O=C(C=C1CCCN1)c1ccccc1
5,131 to 132,COC(=O)c1ccc(Oc2c(-c3ccc(OCc4ccccc4)cc3)c(C(F)(F)F)cc3ccccc23)cc1
6,132 to 133,O=C(CCC(=O)N1CCCCC1c1ccccc1)c1ccc2c(c1)CCN(C(=O)C(F)(F)F)CC2 (stereo unspecified)
7,240 to 242,CC1(C)C(=O)Oc2ccc3cc(C#N)c(C(n4cncn4)n4cncn4)cc3c21
8,100 to 101,Cc1oc(-c2ccccc2Cl)nc1CCOc1ccc([N+](=O)[O-])cn1
9,139 to 142,COc1ccc(C)cc1NC(=O)Nc1ccc(C2=CCN(C(=O)Nc3cc(OCCO)ccc3Cl)CC2)cc1
10,173 to 175,COc1ccc(CCN2CC(COc3cccc4c(=O)[nH]ccc34)OC2=O)cc1OC (stereo unspecified)
11,147 to 149,CC(C)(C)OC(=O)NCc1ccc(-c2ccc(O)cc2)cc1
12,57 to 58,Cc1sc(C(=O)OCc2ccccc2)cc1[N+](=O)[O-]
13,104 to 105,COC(=O)Cc1ccc(C(=O)c2ccc(OC)cc2)n1C
14,224 to 225,COc1ccc(C(=O)Nc2cc(-c3c(-c4ccc(F)c(C)c4)nc4ccc(N(C)C)nn34)ccn2)cc1
15,150 to 152,O=C(NCCc1c[nH]c2ccccc12)c1cccnc1
16,94 to 95,Clc1ccc(N(Cc2ccccc2)c2ccccc2)cc1
17,226 to 227,Nc1nc(SC(c2ccccc2)c2ccccc2)c2[nH]cnc2n1
18,214 to 216,Nc1cc(-c2ccccc2)cc2nc(-c3ccccc3)nn12
19,69 to 71,O=[N+]([O-])c1cccc(Cl)c1NCc1ccccc1Cl
20,242,CC(=O)Nc1ccc(O)c(CN2CCC(NC(=O)c3ccccc3)CC2)c1
21,151 to 153,CC(C)(C)c1cc(SCN2C(=O)c3ccccc3C2=O)cc(C(C)(C)C)c1O
22,154 to 156,CCN(C(=O)c1ccccc1C(=O)c1ccc(F)cc1)C(C)(C)CNS(=O)(=O)c1ccc(C)cc1
23,200,O=C(O)C(ON=c1c2nccc3cccc(c32)n2cccc12)c1ccccc1 (stereo unspecified)
24,61 to 63,CC(CO)c1ccc(-c2ccccc2)c(F)c1 (stereo unspecified)
25,129 to 131,COC(=O)CCCc1cc2nc(Cl)ccc2n1S(=O)(=O)c1ccc(F)c([N+](=O)[O-])c1
